In PubChem BioAssay AID602191 (Broad Institute, 2012):
Calls of active or inactive are those of the source.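 How the source made its calls: active means fitted curve reaches 40% activation at a concentration no higher than the top valid tested dose; inconclusive means flat fit between 30% and 70% activation, or poor fit; inactive means uptake decrease, flat fit within 30% of zero, the rest.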

molecular target: Scavenger receptor class B member 1 (Mus musculus) (UniProt Q61009); test: activators of SR-BI-mediated HDL uptake, dose response, cell-based, ldlA[mSR-BI] CHO, DiI fluorescence, cherry-pick (AID 602191); conditions: ldlA[mSR-BI] CHO cells, 3 h, at 35 µM (top of the series);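 further: cell fluorescence from internalized DiI-labeled HDL after washing; 0% = median of DMSO wells and 100% = twice the DMSO signal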
Sequence (Q61009 whole entry, looked up): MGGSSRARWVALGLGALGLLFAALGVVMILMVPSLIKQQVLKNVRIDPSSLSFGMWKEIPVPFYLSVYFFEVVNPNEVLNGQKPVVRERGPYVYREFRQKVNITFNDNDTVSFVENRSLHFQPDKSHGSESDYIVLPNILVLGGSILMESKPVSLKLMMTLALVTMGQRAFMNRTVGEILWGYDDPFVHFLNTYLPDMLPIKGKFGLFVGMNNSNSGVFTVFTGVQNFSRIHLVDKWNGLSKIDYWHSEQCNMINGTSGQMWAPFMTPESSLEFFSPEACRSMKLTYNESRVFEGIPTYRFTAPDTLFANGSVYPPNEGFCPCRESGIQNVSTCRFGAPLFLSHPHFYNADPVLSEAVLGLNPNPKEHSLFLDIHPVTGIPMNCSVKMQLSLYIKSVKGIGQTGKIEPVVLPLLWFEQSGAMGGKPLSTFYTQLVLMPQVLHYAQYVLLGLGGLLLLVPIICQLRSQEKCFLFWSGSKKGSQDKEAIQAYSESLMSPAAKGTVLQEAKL

| activation (HDL uptake increase) | SMILES |
| --- | --- |
| -6.64% (inactive) | COc1ccc(N2CCN(C(=O)NC(=O)c3ccc(Cl)cc3)CC2)cc1 |
| -13.3% (inactive) | CN(c1ccc(OCC(=O)OCC(=O)Nc2ccc([N+](=O)[O-])cc2)cc1)S(=O)(=O)c1cccs1 |
| -1.83% (inactive) | COc1ccc(CCN2CC(C(=O)NCc3cnn(C(C)C)c3)CCC2=O)cc1 (stereo unspecified) |
| 8.83% (inactive) | CCOc1ccc(CNC(=O)CCS(=O)(=O)c2ccc3c(c2)oc(=O)n3C)cc1 |
| 7.75% (inactive) | CCOC(=O)C1CCCN(C(=O)CS(=O)(=O)Cc2ccccc2)C1 (stereo unspecified) |
| -1.48% (inactive) | CCc1ccccc1NC(=O)CN1CCC(NC(=O)COC)CC1 |
| -9.83% (inactive) | CCOc1ccc(S(=O)(=O)N2CCN=C2c2ccccc2)c(C)c1C |
| -13.2% (inactive) | CN(CC(=O)Nc1cccc(F)c1)C(=O)C1CC(=O)N(CCc2ccccc2)C1 (stereo unspecified) |
| -9.17% (inactive) | Cc1ccc(S(=O)(=O)N(c2cccc(C)c2)C2CCS(=O)(=O)C2)cc1 (stereo unspecified) |
| -9.16% (inactive) | CNC(=O)c1ccc(N(Cc2ccccc2C)S(C)(=O)=O)cc1 |
| -2.45% (inactive) | COC(=O)C(Cc1ccc(O)cc1)NC(=O)C1CCN(S(=O)(=O)c2ccc(C)cc2)CC1 (stereo unspecified) |
| -4.2% (inactive) | COCCCNC(=O)CC(NS(=O)(=O)c1ccc(OC)cc1)c1ccc(OC)cc1 (stereo unspecified) |
| 2.16% (inactive) | CCOc1ccc(S(=O)(=O)NCCc2cn3ccccc3n2)cc1 |
| 7.83% (inactive) | O=C1CCN(S(=O)(=O)c2ccccc2)CCN1CCOCc1cccc(F)c1 |
| -14.9% (inactive) | O=C(c1ccc(NS(=O)(=O)c2cccc([N+](=O)[O-])c2)cc1)N1CCN(C(=O)c2ccco2)CC1 |
| -22.7% (inactive) | CCc1nnc(NC(=O)c2nc(S(=O)(=O)Cc3ccc(C)cc3)ncc2Cl)s1 |
| -16% (inactive) | COc1ccc(C(=O)NCc2nnc(SCC(=O)NCc3ccc(F)cc3)o2)cc1 |
| 2.03% (inactive) | COc1ccc(NC(=O)C(NC(=O)Cc2cccs2)c2ccc(C)cc2)cc1 (stereo unspecified) |
| -10.8% (inactive) | O=C(CCNC(=O)c1ccccc1Cl)NN1C(=O)NC2(CCCCC2)C1=O |
| 0.807% (inactive) | CC(OC(=O)c1ccc(S(=O)(=O)N2CCCCC2)cc1)C(=O)Nc1ccc(C(N)=O)cc1 (stereo unspecified) |

The next lines start with the molecule.

| SMILES | activation (HDL uptake increase) |
| --- | --- |
| O=C1CCCCN1CCC(=O)N1CCCC(Nc2ccccc2)C1 (stereo unspecified) | 4.76% (inactive) |
| O=C(c1ccc(CS(=O)Cc2ccccc2Cl)o1)N1CCN(C2CCCCC2)CC1 (stereo unspecified) | 2.09% (inactive) |
| Nc1nnc(SCC(=O)NN2C(=O)NC3(CCCCC3)C2=O)s1 | -7.59% (inactive) |
| CCC[C@@H](CNC)NC[C@H](Cc1ccccc1)NCCCCc1ccccc1 | -3.49% (inactive) |
| COc1ccccc1N1C(=O)CCC1(C#N)c1ccc(Br)cc1 (stereo unspecified) | 9.71% (inactive) |
| COc1cccc(CN2CCNC(=O)C2CC(=O)NCCCn2ccnc2)c1 (stereo unspecified) | 13% (inactive) |
| CC(C)c1ccc(OCC(=O)NCCO)cc1 | 1.48% (inactive) |
| Cn1c(SCC(=O)N2CCCCCC2)nc2c(c1=O)SCC2 | -10.7% (inactive) |
| C=CCn1c(C(CCC(C)C)CC(C)(C)O)n[nH]c1=S (stereo unspecified) | 7.72% (inactive) |
| COc1ccccc1N(CC(=O)Nc1cc(C)on1)S(=O)(=O)c1cccc(C(F)(F)F)c1 | 1.11% (inactive) |
| COc1ccc(CCNS(=O)(=O)c2cn(C)c(=O)n(C)c2=O)cc1OC | -3.3% (inactive) |
| CCCCn1c(=N)n(CCOc2ccc(C)cc2)c2ccccc21 | -6.96% (inactive) |
| O=C(NCCCCc1ccccc1)C1CC(c2cccc(F)c2)=NO1 (stereo unspecified) | -4.48% (inactive) |
| Cc1ccccc1-c1nnc(SCC(=O)Nc2c(C)n(C)n(-c3ccccc3)c2=O)o1 | -18.8% (inactive) |
| CC(=O)N1C2CCCCC2S[C@H]2CCCCC21 (stereo partly specified) | -4.16% (inactive) |
| Cc1ccc(C(=O)NCCc2cccs2)cc1 | 1.64% (inactive) |
| C=CC[C@@H](CC(=O)N[C@@H](CO)Cc1ccccc1)C(=O)N[C@H](COC(=O)[C@@H](CC=C)CC(=O)OC(C)(C)C)Cc1c[nH]c2ccccc12 | 65.3% (inactive) |
| CC(C)Cc1cc(C(=O)NCc2ccco2)no1 | -10.4% (inactive) |
| COCCNC(=O)C1(C)C=CC2(CCCCC2)N1C(=O)c1ccccc1 (stereo unspecified) | 3.23% (inactive) |
| CN1OC[C@@H]2CN[C@H](c3cccc(-c4cc(Cl)cc(Cl)c4)c3)C[C@@H]21 | 5.62% (inactive) |
| Cc1cccc(N2C(=O)N3[C@H](c4ccc(Br)cc4)[C@@H]4C(=O)N(C(C)(C)C)C(=O)[C@@H]4[C@]3(C)C2=O)c1 | 6.14% (inactive) |
